Data taken from patent publication US7812015B2, “Prophylaxis and treatment of infectious diseases” (priority 2002, dated 2010).
Where two headings read alike, the source gives them in different places.

What was measured:
[1] = tested on: rhinovirus strain 14; assay: Infection of Hela epithelial cells with rhinovirus strain 14, cytotoxic effect by flow cytometry after FITC-annexin staining; assay type: cell-based, human; details: rhinovirus strain 14, 24 h, drug added in serum-free medium 30 min before infection
Text: (§1) This was shown for Hela cells as example. […] Means±standard deviation for three experiments are shown. […] This is depicted in FIG. 2. […] Means±standard deviation of three experiments are depicted. […] 2. Infection with HIV

[2] = target: T1, acid sphingomyelinase (ASM) (Homo sapiens, UniProt P17405); assay: Acid sphingomyelinase activity in lysates of Hela cells infected with rhinovirus strain 14 ([14C]sphingomyelin assay); assay type: cell-based; details: rhinovirus strain 14, MOI 25, preincubation with inhibitor
T1 construct: endogenous in cells; host or cells: HeLa cells infected with rhinovirus strain 14
Procedure: (§2) The cells were infected with rhinoviruses (strain 14, MOI 25), and the sphingomyelinase activity in cell lysates was measured. For this purpose, the cells were washed after the infection, taken up in 250 mM sodium acetate (pH 5.0), 1.3 mM EDTA and 0.05% NP40, disrupted by ultrasound treatment with a sonicator probe at low energy, and incubated with [^14C]sphingomyelin (0.5 μCi/sample, 54.5 mCi/mmol; NEN) for 30 min The in vitro enzyme assay was stopped by adding 800 μl of a 2:1 column mixture of CHCl3 and CH3OH (v/v) and 200 μl of H2O, and the liberation of [^14C]phosphorylcholine into the aqueous supernatant was measured by scintigraphy after organic extraction. […] Hela cells were again infected with rhinoviruses (strain 14) for this purpose. Ceramide was measured by a diacylglycerol (DAG) kinase assay (Grassme et al., Cell 91, 605-615, 1997). Ceramide was converted into [^32P]-ceramide by adding DAG kinase and [^32P]γATP. The phosphorylated ceramide was fractionated by thin layer chromatography and determined by scintigraphy. […] Infection of human epithelial cells by rhinoviruses was measured in flow cytometric analyses of the cytopathic effect of the viruses. […] 2.

[3] = tested on: rhinovirus strains (RV14, RV16); assay: Infection of Hela epithelial cells with various rhinovirus strains, cytotoxic effect by FITC-annexin flow cytometry; assay type: cell-based, human; details: RV14 and RV16, 24 h, drug added in serum-free medium 30 min before infection
Text: as §1

[4] = tested on: ceramide; assay: Ceramide liberation in rhinovirus-infected Hela cells (DAG kinase assay); assay type: cell-based, human; details: Hela cells infected with rhinovirus strain 14, preincubation
Text: as §1

[5] = tested on: Hela epithelial cells
Procedure: as §2

T1 sequence (P17405 47-631): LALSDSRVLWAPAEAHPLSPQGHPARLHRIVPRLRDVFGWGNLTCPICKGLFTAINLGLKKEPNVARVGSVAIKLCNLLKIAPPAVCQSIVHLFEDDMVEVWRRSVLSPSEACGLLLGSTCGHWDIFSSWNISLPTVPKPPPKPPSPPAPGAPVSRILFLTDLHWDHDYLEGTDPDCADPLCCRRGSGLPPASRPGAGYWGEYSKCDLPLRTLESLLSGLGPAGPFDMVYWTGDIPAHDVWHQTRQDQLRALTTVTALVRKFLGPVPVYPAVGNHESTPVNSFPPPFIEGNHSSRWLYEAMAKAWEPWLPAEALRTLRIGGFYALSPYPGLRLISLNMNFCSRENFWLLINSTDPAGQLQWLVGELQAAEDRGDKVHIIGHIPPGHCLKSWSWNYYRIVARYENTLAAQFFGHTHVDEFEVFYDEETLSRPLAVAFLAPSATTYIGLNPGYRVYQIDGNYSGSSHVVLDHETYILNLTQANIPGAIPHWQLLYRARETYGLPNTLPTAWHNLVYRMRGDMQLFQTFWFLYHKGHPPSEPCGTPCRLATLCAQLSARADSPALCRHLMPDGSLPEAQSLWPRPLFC

SMILES | inhibition of viral infection (cytotoxic effect of the virus) [1] | activity of acid sphingomyelinase after preincubation of the cells [2] | inhibition of viral infection (cytotoxic effect of the viruses) [3] | liberation of ceramide after preincubation of the cells [4] | cytotoxic effect of the drug itself on the cells ([5]; Hela cells) | cytotoxic effect of the drug itself on the cells [5]
CN(C)CCC=C1c2ccccc2CCc2ccccc21 [amitryptiline] | almost completely inhibits the viral infection | blocks the activity of acid sphingomyelinase | almost completely inhibit the viral infection | abolishes the liberation of ceramide | no cytotoxic effect | –
CN(C)CCCN1c2ccccc2CCc2ccccc21 [imipramine] | almost completely inhibits the viral infection | – | almost completely inhibit the viral infection | – | – | no cytotoxic effect
